Results taken from US20190070214A1 (priority 2016, published 2019).
Several values for one entry are separate records, joined by “and”; a condition that tells them apart may be missing. Identical values can stand only once. Positions of bridges follow the written chain, without caps; N, C: chain ends. Non-standard residues stand in square brackets, D forms with d. Residues, ends and D or L forms follow the SMILES beside them. *: point of attachment. Ileψ(thiazoline)Cys = CC[C@H](C)[C@H](N)C1=N[C@H](C(=O)*)CS1; dOrn = NCCC[C@@H](N)C(=O)O

How the values were obtained:
[1] = TNBS-induced colitis, colon length and weight; settings: Group 2, prednisolone 1 mg/kg/dose t.i.d.; day 5; individual animals
[2] = TNBS-induced colitis, histopathology of colon; settings: day 5
[3] = TNBS-induced colitis, video endoscopy colitis score
[4] = TNBS-induced colitis, body weight
[5] = system: Clostridium perfringens; assay type: in vivo, broiler chicks
[6] = Group 2, prednisolone 1 mg/kg/dose t.i.d., mean per animal, scale 0-4 (Table 3)
[7] = Group 2, prednisolone 1 mg/kg/dose t.i.d., individual animals, scale 0-4 (Table 2)
[8] = Group 2, prednisolone 1 mg/kg/dose t.i.d. p.o. + TNBS, individual animals

For `C[C@]12C=CC(=O)C=C1CC[C@@H]1[C@@H]2[C@@H](O)C[C@@]2(C)[C@H]1CC[C@]2(O)C(=O)CO` [Prednisolone], the “Colon Length” value [1] was 8 (3×) and 6.4 and 8.5 and 7.2 (2×) and 7 and 6.5 and 7.5, the “Colon Weight” value [1] was 0.334 and 0.344 and 0.392 and 0.386 and 0.248 and 0.276 and 0.24 and 0.318 and 0.35 and 0.224 and the “Histology Scores Edema” value [2, 6] was 1.20 (4×) and 0.83 (2×) and 0.50 and 0.67 and 1.40 and 0.80. For the same molecule, the “Histology Scores Inflam” value [2, 6] was 1.60 and 1.40 and 1.00 (3×) and 0.83 (2×) and 0.33 and 0.67 and 0.80, the “Histology Scores Necrosis” value [2, 6] was 1.00 and 0.80 (3×) and 0.40 and 0.67 and 0.00 and 0.33 and 0.50 and 0.60 and the “edema scores vs vehicle control” value ([2]; prednisolone, p=0.004) was “significantly lower”. For the same molecule, the “sum pathology scores vs vehicle control” value ([2]; prednisolone, p=0.007) was “significantly lower”, the “Endo Score Day 3” value [3, 7] was 2 (4×) and 1 (2×) and 3 and 4 (3×) and the “Endo Score Day 5” value [3, 7] was 3 (3×) and 2 (5×) and 4 and 1. For the same molecule, the “colitis score of representative endoscopy image” value ([3]; day 5, prednisolone, scale 0-4, vehicle 3) was 2, the “mean colitis scores vs vehicle control” value ([3]; prednisolone 1 mg/kg/dose t.i.d., day 3 p=0.010, day 5 p=0.027) was “significantly reduced mean colitis scores” and the “Animal Weights Day 0” value [4, 8] was 23.09 and 25.03 and 23.28 and 23.97 and 22.64 and 24.58 and 24.61 and 25.53 and 25.1 and 24.95. For the same molecule, the “Animal Weights Day 1” value [4, 8] was 20.19 and 21.15 and 20.41 and 20.78 and 20.62 and 21.89 and 22.21 and 22.35 (2×) and 22.44, the “Animal Weights Day 2” value [4, 8] was 19.12 and 20.17 and 19.33 and 19.52 and 20.33 and 20.83 and 22.81 and 21.35 and 22.46 and 23.66 and the “Animal Weights Day 3” value [4, 8] was 18.77 and 19.45 and 18.6 and 19.09 and 22.59 and 21.38 and 23.44 and 21.24 and 23.92 and 24.77. For the same molecule, the “Animal Weights Day 4” value [4, 8] was 18.36 and 19.11 and 19.32 and 18.56 and 22.41 and 21.65 and 23.51 and 22.09 and 23.48 and 23.97, the “Animal Weights Day 5” value [4, 8] was 19.28 and 20.1 and 21.49 and 19.89 and 22.48 and 22.05 and 24.03 and 23.91 and 24.24 and 24.3 and the “Animal Weights Day −1” value [4, 8] was 23.94 and 25.76 and 24.35 and 24.86 and 24.02 and 25.97 and 26.64 and 26.78 and 27.15 and 27.02. For the same molecule, the “average weight loss from starting weight” value ([4]; day 2, prednisolone 1 mg/kg/dose t.i.d. p.o.) was 18.3%.
For `CC[C@H](C)[C@H](N)C1=N[C@H](C(=O)N[C@@H](CC(C)C)C(=O)N[C@H](CCC(=O)O)C(=O)N[C@H](C(=O)N[C@H]2CCCCNC(=O)[C@H](CC(N)=O)NC(=O)[C@@H](CC(=O)O)NC(=O)[C@H](Cc3cnc[nH]3)NC(=O)[C@@H](Cc3ccccc3)NC(=O)[C@H]([C@@H](C)CC)NC(=O)[C@@H](CCCN)NC2=O)[C@@H](C)CC)CS1` [BMD, bacitracin] ({Ileψ(thiazoline)Cys}-L[dE]IK[dOrn]I[dF]H[dD]N; lactam 4-C), the “necrotic enteritis (NE) of the GI tract, figure given for BMD” value ([5]; BMD positive control in water, P<0.05, meaning of figure unclear) was 93% and the “mortality normalized to untreated (100%)” value ([5]; total aggregate deaths up to and including day 14) was 45%.
